# Experimental data as given in patent US9480754B2, “Phospholipid ether analogs as cancer-targeting drug vehicles” (Cellectar Biosciences, Inc., priority 2014, dated 2016).
# Legend:
# Type in all cases: in vivo
# [1] = system: Neuroblastoma Lan5; experiment: 124I-CLR1404 tumor uptake, model 17; settings: Nude mouse
# Method: (§1) All described animal studies were performed according to animal protocols approved by the Institutional Animal Care and Use Committee. Female athymic nude mice (Hsd:Athymic Nude-Foxnlnu or Crl:NU-Foxnlnu, Charles River Laboratories) about 4 to 5 weeks of age, 16 to 18 g (n=6), were used for human tumor xenograft studies. Mice were anesthetized with isoflurane and injected subcutaneously with viable tumor cells in 100 μl of Dulbecco's PBS (or, for glioma cells, […] of PBS) into the right flank. Inoculum sizes were 1×10^6 (for renal, ovarian, glioma, pancreatic, prostate, and NSCLC models), […] (for colorectal and uterine models), or 3×10^6 (breast).
# (§2) Radioiodinated ^124I-CLR1404 was tested in subcutaneous and orthotopic xenografts of 60 different spontaneous, transgenic, human, and rodent malignant cell lines and tumor types. […] Representative examples are of both human (FIG. 5A-5I) and rodent (FIG. 5J-M) tumors.
# [2] = system: Glioma RG2; experiment: 124I-CLR1404 tumor uptake, model 50; settings: Rat xenograft
# Method: as §1, §2
# [3] = system: Uterine MES SA/Dx5; experiment: 124I-CLR1404 tumor uptake, model 32; settings: Nude mouse, Sarcoma
# Method: as §1, §2
# [4] = system: Neuroblastoma NB1691; experiment: 124I-CLR1404 tumor uptake, model 15; settings: Nude mouse
# Method: as §1, §2
# [5] = system: Renal cell Caki-2; experiment: 124I-CLR1404 tumor uptake, model 23; settings: Nude mouse (orthotopic), Clear cell carcinoma
# Method: as §1, §2
# [6] = system: Colon Pirc; experiment: 124I-CLR1404 tumor uptake, model 41; settings: Autochthonous Pirc rat, Adenocarcinoma
# Method: as §1, §2
# [7] = system: Mammary SCC; experiment: 124I-CLR1404 tumor uptake, model 44; settings: ApcMin/+ mouse, Squamous cell carcinoma
# Method: as §1, §2
# [8] = system: Sarcoma (Meth-A); experiment: 124I-CLR1404 tumor uptake, model 25; settings: Nude mouse, Fibrosarcoma
# Method: as §1, §2
# [9] = system: Neuroblastoma CHLA-20; experiment: 124I-CLR1404 tumor uptake, model 16; settings: Nude mouse
# Method: as §1, §2
# [10] = system: Ovarian HTB-77; experiment: 124I-CLR1404 tumor uptake, model 18; settings: Nude mouse, Adenocarcinoma
# Method: as §1, §2
# [11] = system: TRAMP prostate; experiment: 124I-CLR1404 tumor uptake, model 39; settings: Endogenous mouse, Adenocarcinoma
# Method: as §1, §2
# [12] = system: Bladder SV40; experiment: 124I-CLR1404 tumor uptake, model 36; settings: Mouse (orthotopic), Adenocarcinoma
# Method: as §1, §2
# [13] = system: Glioblastoma U87; experiment: 124I-CLR1404 tumor uptake, model 11; settings: Nude mouse and NOD-SCID, Glioma
# Method: as §1, §2
# [14] = system: Glioblastoma 22 GSC; experiment: 124I-CLR1404 tumor uptake, model 33; settings: NOD-SCID mouse (orthotopic), Glioma
# Method: as §1, §2
# [15] = system: Head and neck SCC1; experiment: 124I-CLR1404 tumor uptake, model 26; settings: Nude mouse, Squamous cell carcinoma
# Method: as §1, §2
# [16] = system: Ovarian Ovcar-3; experiment: 124I-CLR1404 tumor uptake, model 19; settings: Nude mouse, Adenocarcinoma
# Method: as §1, §2
# [17] = system: Pirc rat colon adenoma; experiment: 124I-CLR1404 tumor uptake, model 60
# Method: as §1, §2
# [18] = system: Melanoma A-375; experiment: 124I-CLR1404 tumor uptake, model 12; settings: Nude mouse
# Method: as §1, §2
# [19] = system: Colon CT26; experiment: 124I-CLR1404 tumor uptake, model 40; settings: SCID mouse, Adenocarcinoma
# Method: as §1, §2
# [20] = system: Hepatocellular carcinoma; experiment: 124I-CLR1404 tumor uptake, model 46; settings: Endogenous mouse, Adenocarcinoma
# Method: as §1, §2
# [21] = system: Multiple myeloma MM.1S; experiment: 124I-CLR1404 tumor uptake, model 13; settings: Nude mouse
# Method: as §1, §2
# [22] = system: Hepatoma Hep-3B; experiment: 124I-CLR1404 tumor uptake, model 58; settings: Nude mouse, Carcinoma
# Method: as §1, §2
# [23] = system: Head and neck SCC6; experiment: 124I-CLR1404 tumor uptake, model 27; settings: Nude mouse, Squamous cell carcinoma
# Method: as §1, §2
# [24] = system: Glioma L9; experiment: 124I-CLR1404 tumor uptake, model 47; settings: Rat xenograft
# Method: as §1, §2
# [25] = system: Walker256; experiment: 124I-CLR1404 tumor uptake, model 38; settings: Rat, Carcinosarcoma
# Method: as §1, §2
# [26] = system: Intestinal polyp; experiment: 124I-CLR1404 tumor uptake, model 56; settings: Endogenous mouse, Adenoma (benign)
# Method: as §1, §2
# [27] = system: Mammary AC; experiment: 124I-CLR1404 tumor uptake, model 45; settings: ApcMin/+ mouse, Adenocarcinoma
# Method: as §1, §2
# [28] = system: Renal cell ACHN; experiment: 124I-CLR1404 tumor uptake, model 24; settings: Nude mouse (orthotopic), Adenocarcinoma
# Method: as §1, §2
# [29] = system: Prostate LuCap; experiment: 124I-CLR1404 tumor uptake, model 29; settings: Mouse, Adenocarcinoma
# Method: as §1, §2
# [30] = system: Min mouse intestinal; experiment: 124I-CLR1404 tumor uptake, model 42; settings: Endogenous mouse, Adenocarcinoma
# Method: as §1, §2
# [31] = system: Pancreatic BXPC3; experiment: 124I-CLR1404 tumor uptake, model 20; settings: Nude mouse, Adenocarcinoma
# Method: as §1, §2
# [32] = system: Hepatoma Hep-G2; experiment: 124I-CLR1404 tumor uptake, model 59; settings: Nude mouse, Carcinoma
# Method: as §1, §2
# [33] = system: Colon HT-29; experiment: 124I-CLR1404 tumor uptake, model 9; settings: SCID mouse, Adenocarcinoma
# Method: as §1, §2
# [34] = system: Triple negative breast MDA-MB231; experiment: 124I-CLR1404 tumor uptake, model 31; settings: Nude mouse, Adenocarcinoma
# Method: as §1, §2
# [35] = system: Pancreatic Mia Paca-2; experiment: 124I-CLR1404 tumor uptake, model 21; settings: Nude mouse, Carcinoma
# Method: as §1, §2
# [36] = system: Lung A-549 (NSCLC); experiment: 124I-CLR1404 tumor uptake, model 2; settings: SCID mouse, Adenocarcinoma
# Method: as §1, §2
# [37] = system: Colon LS-180; experiment: 124I-CLR1404 tumor uptake, model 10; settings: Nude mouse, Adenocarcinoma
# Method: as §1, §2
# [38] = system: Glioma CNS1; experiment: 124I-CLR1404 tumor uptake, model 49; settings: Rat xenograft
# Method: as §1, §2
# [39] = system: Breast MCF-7; experiment: 124I-CLR1404 tumor uptake, model 30; settings: Rat, Adenocarcinoma
# Method: as §1, §2
# [40] = system: Prostate LNCap; experiment: 124I-CLR1404 tumor uptake, model 28; settings: Mouse, Adenocarcinoma
# Method: as §1, §2
# [41] = system: Neuroblastoma SK-N-AS; experiment: 124I-CLR1404 tumor uptake, model 14; settings: Nude mouse
# Method: as §1, §2
# [42] = system: Pancreatic Kras; experiment: 124I-CLR1404 tumor uptake, model 53; settings: Endogenous mouse, Adenocarcinoma
# Method: as §1, §2
# [43] = system: Colon DLD1; experiment: 124I-CLR1404 tumor uptake, model 8; settings: SCID mouse, Adenocarcinoma
# Method: as §1, §2
# [44] = system: Adrenal RL-251; experiment: 124I-CLR1404 tumor uptake, model 5; settings: SCID mouse, Adenocarcinoma
# Method: as §1, §2
# [45] = system: Melanoma; experiment: 124I-CLR1404 tumor uptake, model 43; settings: Mouse
# Method: as §1, §2
smiles,measurement,setting,value
C[N+](C)(C)CCOP(=O)([O-])OCCCCCCCCCCCCCCCCCCc1ccc(I)cc1 [^124I-CLR1404],Uptake,[1],Yes (Tumor uptake was considered positive if tumor to muscle ratio was greater than 3.)
same,Uptake,[2],Yes (Tumor uptake was considered positive if tumor to muscle ratio was greater than 3.)
same,Uptake,[3],Yes (Tumor uptake was considered positive if tumor to muscle ratio was greater than 3.)
same,Uptake,[4],Yes (Tumor uptake was considered positive if tumor to muscle ratio was greater than 3.)
same,Uptake,[5],Yes (Tumor uptake was considered positive if tumor to muscle ratio was greater than 3.)
same,Uptake,[6],Yes (Tumor uptake was considered positive if tumor to muscle ratio was greater than 3.)
same,Uptake,[7],Yes (Tumor uptake was considered positive if tumor to muscle ratio was greater than 3.)
same,Uptake,[8],Yes (Tumor uptake was considered positive if tumor to muscle ratio was greater than 3.)
same,Uptake,[9],Yes (Tumor uptake was considered positive if tumor to muscle ratio was greater than 3.)
same,Uptake,[10],Yes (Tumor uptake was considered positive if tumor to muscle ratio was greater than 3.)
same,Uptake,[11],Yes (Tumor uptake was considered positive if tumor to muscle ratio was greater than 3.)
same,Uptake,[12],Yes (Tumor uptake was considered positive if tumor to muscle ratio was greater than 3.)
same,Uptake,[13],Yes (Tumor uptake was considered positive if tumor to muscle ratio was greater than 3.)
same,Uptake,[14],Yes (Tumor uptake was considered positive if tumor to muscle ratio was greater than 3.)
same,Uptake,[15],Yes (Tumor uptake was considered positive if tumor to muscle ratio was greater than 3.)
same,Uptake,[16],Yes (Tumor uptake was considered positive if tumor to muscle ratio was greater than 3.)
same,Uptake,[17],No (Tumor:muscle ratio less than or equal to 2 was considered negative.)
same,Uptake,[18],Yes (Tumor uptake was considered positive if tumor to muscle ratio was greater than 3.)
same,Uptake,[19],Yes (Tumor uptake was considered positive if tumor to muscle ratio was greater than 3.)
same,Uptake,[20],Yes (Tumor uptake was considered positive if tumor to muscle ratio was greater than 3.)
same,Uptake,[21],Yes (Tumor uptake was considered positive if tumor to muscle ratio was greater than 3.)
same,Uptake,[22],No (Tumor:muscle ratio less than or equal to 2 was considered negative.)
same,Uptake,[23],Yes (Tumor uptake was considered positive if tumor to muscle ratio was greater than 3.)
same,Uptake,[24],Yes (Tumor uptake was considered positive if tumor to muscle ratio was greater than 3.)
same,Uptake,[25],Yes (Tumor uptake was considered positive if tumor to muscle ratio was greater than 3.)
same,Uptake,[26],No (Tumor:muscle ratio less than or equal to 2 was considered negative.)
same,Uptake,[27],Yes (Tumor uptake was considered positive if tumor to muscle ratio was greater than 3.)
same,Uptake,[28],Yes (Tumor uptake was considered positive if tumor to muscle ratio was greater than 3.)
same,Uptake,[29],Yes (Tumor uptake was considered positive if tumor to muscle ratio was greater than 3.)
same,Uptake,[30],Yes (Tumor uptake was considered positive if tumor to muscle ratio was greater than 3.)
same,Uptake,[31],Yes (Tumor uptake was considered positive if tumor to muscle ratio was greater than 3.)
same,Uptake,[32],No (Tumor:muscle ratio less than or equal to 2 was considered negative.)
same,Uptake,[33],Yes (Tumor uptake was considered positive if tumor to muscle ratio was greater than 3.)
same,Uptake,[34],Yes (Tumor uptake was considered positive if tumor to muscle ratio was greater than 3.)
same,Uptake,[35],Yes (Tumor uptake was considered positive if tumor to muscle ratio was greater than 3.)
same,Uptake,[36],Yes (Tumor uptake was considered positive if tumor to muscle ratio was greater than 3.)
same,Uptake,[37],Yes (Tumor uptake was considered positive if tumor to muscle ratio was greater than 3.)
same,Uptake,[38],Yes (Tumor uptake was considered positive if tumor to muscle ratio was greater than 3.)
same,Uptake,[39],Yes (Tumor uptake was considered positive if tumor to muscle ratio was greater than 3.)
same,Uptake,[40],Yes (Tumor uptake was considered positive if tumor to muscle ratio was greater than 3.)
same,Uptake,[41],Yes (Tumor uptake was considered positive if tumor to muscle ratio was greater than 3.)
same,Uptake,[42],Yes (Tumor uptake was considered positive if tumor to muscle ratio was greater than 3.)
same,Uptake,[43],Yes (Tumor uptake was considered positive if tumor to muscle ratio was greater than 3.)
same,Uptake,[44],Yes (Tumor uptake was considered positive if tumor to muscle ratio was greater than 3.)
same,Uptake,[45],Yes (Tumor uptake was considered positive if tumor to muscle ratio was greater than 3.)
